This is an account of results in ChEMBL document CHEMBL4765389, “Antimicrobial and anti-inflammatory activities of short dodecapeptides derived from duck cathelicidin: Plausible mechanism of bactericidal action and endotoxin neutralization” (Eur J Med Chem, 2020).

Data set [1] concerns Escherichia coli. The data set can be described thus: Bacteriostatic activity against Escherichia coli KCTC 1682 assessed as reduction in colony forming unit at 0.5 times MIC measured for 24 hrs by time kill assay. In kind it is functional.
For data set [2], the system named is Escherichia coli. The data set can be described thus: Bacteriostatic activity against Escherichia coli KCTC 1682 assessed as reduction in colony forming unit at 0.5 times MIC measured for 12 hrs by time kill assay. In kind it is functional, organism-based.
A short description of data set [3]: Cytotoxicity against mouse RAW264.7 cells assessed as reduction in cell viability at 10 uM incubated for 24 hrs by MTT assay. In kind it is cell-based. The following applies: read-out: INH. In general terms: Formazan colour is commonly taken as a measure of viable cells.
Data set [4] can be described thus: Cytotoxicity against mouse NIH/3T3 cells assessed as reduction in cell viability at 20 uM incubated for 24 hrs by MTT assay. In kind it is cell-based, NIH3T3. The following applies: NIH/3T3 cells, read-out: INH.
Data set [5] is described as follows: Retention time of the compound by RP-HPLC method. In kind it is physicochemical.
In data set [6] the test system is Candida albicans. Briefly: Antifungal activity against Candida albicans KCTC 7965 assessed as reduction in fungal growth incubated for 24 hrs by CLSI based broth dilution method. The following applies: read-out: MIC100. In kind it is functional. (In broth dilution the organism is exposed to a series of concentrations in liquid medium.)
The test system of data set [7] is Candida albicans. Briefly: Antifungal activity against Candida albicans KCTC 7121 assessed as reduction in fungal growth incubated for 24 hrs by CLSI based broth dilution method. In kind it is functional. The following applies: read-out: MIC100.
Data set [8] is described as follows: Hemolytic activity in sheep RBC assessed as reduction in hemoglobin at 64 uM incubated for 1 hr. In kind it is ADME, cell-based, Ovis aries, Erythrocyte. The settings on record: sheep red blood cells (erythrocytes), read-out: Activity.
Data set [9] concerns Bacteria. The data set can be described thus: Antibacterial activity against Gram positive bacteria assessed as reduction in bacterial growth incubated for 24 hrs by CLSI based broth dilution method. In kind it is functional. The settings on record: read-out: MIC100.
The test system of data set [10] is Staphylococcus aureus. Briefly: Antibacterial activity against methicillin-resistant Staphylococcus aureus CCARM 3089 assessed as reduction in bacterial growth incubated for 24 hrs by CLSI based broth dilution method. In kind it is functional. The following applies: read-out: MIC100.
The next data set has as its system Enterococcus faecium. The data set can be described thus: Antibacterial activity against vancomycin-resistant Enterococcus faecium ATCC 51559 assessed as reduction in bacterial growth incubated for 24 hrs by CLSI based broth dilution method. In kind it is functional. The following applies: read-out: MIC100.
Data set [11] can be described thus: Cytotoxicity against mouse RAW264.7 cells assessed as reduction in cell viability at 20 uM incubated for 24 hrs by MTT assay. In kind it is cell-based. The following applies: read-out: INH.
The test system of data set [12] is Erythrocyte. Briefly: Hemolytic activity in sheep RBC assessed as reduction in hemoglobin at 256 uM incubated for 1 hr. In kind it is ADME, cell-based, Ovis aries.
Data set [13] is described as follows: Therapeutic index, ratio of HC10 for sheep RBC to geometric mean MIC for gram negative bacteria. In kind it is toxicity. The settings on record: sheep red blood cells, read-out: TI.
For a further data set, the system named is Salmonella typhimurium. The data set can be described thus: Antibacterial activity against Salmonella typhimurium KCTC 1926 assessed as reduction in bacterial growth incubated for 24 hrs by CLSI based broth dilution method. In kind it is functional, Salmonella enterica subsp. enterica serovar Typhimurium. The following applies: Salmonella enterica, read-out: MIC100.

In data set [14] the test system is Staphylococcus epidermidis. The data set can be described thus: Antibacterial activity against Staphylococcus epidermidis KCTC 1917 assessed as reduction in bacterial growth incubated for 24 hrs by CLSI based broth dilution method. In kind it is functional. The settings on record: read-out: MIC100.
For data set [15], the system named is Staphylococcus aureus. Briefly: Antibacterial activity against Staphylococcus aureus KCTC 1621 assessed as reduction in bacterial growth incubated for 24 hrs by CLSI based broth dilution method. In kind it is functional. The following applies: read-out: MIC100.
Data set [16] relates to Erythrocyte. Briefly: Hemolytic activity in sheep RBC assessed as reduction in hemoglobin incubated for 1 hr. In kind it is ADME, cell-based, Ovis aries.
For another data set, the system named is Saccharomyces cerevisiae. The data set can be described thus: Antifungal activity against yeast assessed as reduction in fungal growth incubated for 24 hrs by CLSI based broth dilution method. The settings on record: read-out: MIC100. In kind it is functional.
Data set [17] has as its system Escherichia coli. The data set can be described thus: Antibacterial activity against Escherichia coli KCTC 1682 assessed as reduction in bacterial growth incubated for 24 hrs by CLSI based broth dilution method. In kind it is functional. The following applies: read-out: MIC100.
Data set [18] in a line: Therapeutic index, ratio of HC10 for sheep RBC to geometric mean MIC for yeast. In kind it is toxicity. The settings on record: sheep red blood cells, read-out: TI.
Data set [19] is described as follows: Cytotoxicity against mouse NIH/3T3 cells assessed as reduction in cell viability at 10 uM incubated for 24 hrs by MTT assay. In kind it is cell-based, NIH3T3. The settings on record: read-out: INH.
The nature of data set [20]: Therapeutic index, ratio of HC10 for sheep RBC to geometric mean MIC for gram positive bacteria. In kind it is toxicity. The settings on record: sheep red blood cells, read-out: TI.
Data set [21] deals with Bacteria. Briefly: Antibacterial activity against Gram negative bacteria assessed as reduction in bacterial growth incubated for 24 hrs by CLSI based broth dilution method. In kind it is functional. The settings on record: read-out: MIC100.
Data set [22] is described as follows: Antibacterial activity against multidrug-resistant Pseudomonas aeruginosa CCARM 2095 assessed as reduction in bacterial growth incubated for 24 hrs by CLSI based broth dilution method. In kind it is functional. The settings on record: read-out: MIC100.
Data set [23] relates to Staphylococcus aureus. Briefly: Antibacterial activity against methicillin-resistant Staphylococcus aureus CCARM 3090 assessed as reduction in bacterial growth incubated for 24 hrs by CLSI based broth dilution method. In kind it is functional. The following applies: read-out: MIC100.
Data set [24] in a line: Antibacterial activity against multidrug-resistant Pseudomonas aeruginosa CCARM 2109 assessed as reduction in bacterial growth incubated for 24 hrs by CLSI based broth dilution method. In kind it is functional. The settings on record: read-out: MIC100.
The next data set relates to Bacillus subtilis. The data set can be described thus: Antibacterial activity against Bacillus subtilis KCTC 3068 assessed as reduction in bacterial growth incubated for 24 hrs by CLSI based broth dilution method. In kind it is functional. The following applies: read-out: MIC100.
For the next data set, the system named is Pseudomonas aeruginosa. Briefly: Antibacterial activity against Pseudomonas aeruginosa KCTC 1637 assessed as reduction in bacterial growth incubated for 24 hrs by CLSI based broth dilution method. The settings on record: read-out: MIC100. In kind it is functional.
Data set [25] relates to Staphylococcus aureus. Briefly: Antibacterial activity against methicillin-resistant Staphylococcus aureus CCARM 3095 assessed as reduction in bacterial growth incubated for 24 hrs by CLSI based broth dilution method. In kind it is functional. The following applies: read-out: MIC100.

The source made the active and inactive calls. The rule behind the calls is not given here. A value given as a limit tells only on which side of the number the result lay.

Turning to `O=C(N[C@H](CO)[C@H](O)c1ccc([N+](=O)[O-])cc1)C(Cl)Cl`, the outcome with Escherichia coli [1] was inactive. The outcome in the data set on Escherichia coli [2] was Active.

Take H-KRFWQLVPLAIKIYRAWKRR-OH: the cytotoxicity at 24 h, 10 µM in data set [3] and in data set [19] was 40% throughout. Also, the cytotoxicity at 24 h, 20 µM in [4] and in [11] was less than 10% each time. This molecule also yielded a Retention_time in [5] of 26.8 min. Further, the MIC worked out at 8 µM in the data set on Candida albicans [6]; 16 µM in the data set with Candida albicans [7]; 11.4 µM in the data set on Bacteria [9]; 16 µM in the data set with Staphylococcus aureus [10]; 16 µM in the data set on Enterococcus faecium; 4 µM with Salmonella typhimurium. The MIC worked out at 8 µM in data set [14]; 8 µM with Staphylococcus aureus [15]; 12 µM in the data set with Saccharomyces cerevisiae; 8 µM with Escherichia coli [17]; 12 µM in the data set with Bacteria [21]; 16 µM in data set [22]. For the same molecule, the MIC in the data set with Staphylococcus aureus [23] came to 16 µM; in data set [24] it was 16 µM; in the data set on Bacillus subtilis, 8 µM; in the data set with Pseudomonas aeruginosa, 16 µM; in the data set on Staphylococcus aureus [25], 8 µM. Further, the hemolysis at 1 h, 64 µM in data set [8] worked out at 40%. The Activity result in the data set on Erythrocyte [12] was “Non-Toxic”. Besides, the selectivity ratio in data set [13], in data set [18] and in data set [20] was 0.4 in each case. Besides, the HC10 with Erythrocyte [16] was 5.1 µM.

On to H-FWQLVPLAIKIYRAWKRR-NH2, for which the cytotoxicity at 24 h, 10 µM in [3] and in [19] was 40% in each case. The cytotoxicity at 24 h, 20 µM in data set [4] and in data set [11] was less than 10% throughout. The molecule further registered a Retention_time in data set [5] of 29 min. In addition, the MIC in the data set on Candida albicans [6] was determined as 16 µM; in the data set on Candida albicans [7] it was 16 µM; in the data set with Bacteria [9], 20.5 µM; in the data set on Staphylococcus aureus [10] it was 32 µM; in the data set on Enterococcus faecium it was 32 µM; in the data set with Salmonella typhimurium, 8 µM. In addition, the MIC turned out to be 16 µM in data set [14]; 8 µM with Staphylococcus aureus [15]; 16 µM in the data set with Saccharomyces cerevisiae; 16 µM in the data set with Escherichia coli [17]; 20.8 µM with Bacteria [21]; 32 µM in data set [22]. Also, the MIC in the data set with Staphylococcus aureus [23] stood at 16 µM; in [24], 32 µM; in the data set on Bacillus subtilis it was 8 µM; in the data set on Pseudomonas aeruginosa, 16 µM; in the data set with Staphylococcus aureus [25] it was 32 µM. In data set [8], the hemolysis at 1 h, 64 µM turned out to be 100%. The Activity entry in the data set with Erythrocyte [12] is given as “Non-Toxic”. Moreover, the selectivity ratio in data set [13], in data set [18] and in [20] was 0.1 each time. The HC10 in the data set with Erythrocyte [16] amounted to 1.3 µM.
